{"source": "patent US10865193B2", "about": "“Pyridone derivatives for the treatment of viral infections and further diseases” (JANSSEN SCIENCES IRELAND UNLIMITED COMPANY, priority 2013, dated 2020)", "type_in_all_cases": "cell-based", "key": {"human TLR8": {"target": "T1, human TLR8 (Homo sapiens, UniProt Q9NR97)", "T1 construct": "expressed in transfected cells; host or cells: HEK293 (transient transfection)", "T1 sequence (Q9NR97 27-1041)": "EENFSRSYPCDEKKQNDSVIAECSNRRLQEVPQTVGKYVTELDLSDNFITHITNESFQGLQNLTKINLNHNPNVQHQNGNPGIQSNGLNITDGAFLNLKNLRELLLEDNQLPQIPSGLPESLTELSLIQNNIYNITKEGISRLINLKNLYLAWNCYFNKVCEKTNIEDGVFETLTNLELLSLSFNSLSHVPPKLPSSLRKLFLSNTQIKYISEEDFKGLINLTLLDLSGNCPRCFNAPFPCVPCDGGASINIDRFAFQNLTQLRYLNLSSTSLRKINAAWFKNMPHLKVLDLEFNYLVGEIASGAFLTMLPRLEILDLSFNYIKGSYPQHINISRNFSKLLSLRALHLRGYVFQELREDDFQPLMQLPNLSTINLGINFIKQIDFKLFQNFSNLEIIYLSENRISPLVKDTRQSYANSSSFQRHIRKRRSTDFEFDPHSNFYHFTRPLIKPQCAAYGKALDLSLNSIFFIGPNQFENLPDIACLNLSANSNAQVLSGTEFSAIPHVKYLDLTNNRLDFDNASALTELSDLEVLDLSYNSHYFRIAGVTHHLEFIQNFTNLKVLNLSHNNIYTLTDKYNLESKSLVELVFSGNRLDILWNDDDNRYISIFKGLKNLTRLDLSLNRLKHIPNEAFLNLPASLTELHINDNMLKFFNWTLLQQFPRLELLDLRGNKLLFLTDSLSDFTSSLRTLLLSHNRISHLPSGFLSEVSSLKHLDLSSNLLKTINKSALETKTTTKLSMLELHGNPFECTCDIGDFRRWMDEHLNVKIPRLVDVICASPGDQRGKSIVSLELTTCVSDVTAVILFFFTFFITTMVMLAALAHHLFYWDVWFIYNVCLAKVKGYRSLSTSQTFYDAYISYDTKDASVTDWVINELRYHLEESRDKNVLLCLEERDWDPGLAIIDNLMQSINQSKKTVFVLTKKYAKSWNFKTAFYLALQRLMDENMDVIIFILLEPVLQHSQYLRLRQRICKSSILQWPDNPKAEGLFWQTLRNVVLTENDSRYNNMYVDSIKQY", "assay": "TLR8 cellular reporter assay (HEK293, NFκB-luc)", "details": "HEK293 transiently transfected with TLR8 and NFκB-luc; 6 hours incubation; lowest effective concentration", "method": "(§1) The ability of compounds to activate human TLR7 and/or TLR8 was assessed in a cellular reporter assay using HEK293 cells transiently transfected with a TLR7 or TLR8 expression vector and NFκB-luc reporter construct.\n(§2) Briefly, HEK293 cells were grown in culture medium (DMEM supplemented with 10% FCS and 2 mM Glutamine). For transfection of cells in 15 cm dishes, cells were detached with Trypsin-EDTA, transfected with a mix of CMV-TLR7 or TLR8 plasmid (1700 ng), NFκB-luc plasmid (850 ng) and a transfection reagent and incubated for 48 h at 37° C. in a humidified 5% CO2 atmosphere. Transfected cells were then washed in PBS, detached with Trypsin-EDTA and resuspended in medium to a density of 1.25×10^5 cells/mL. Forty microliters of cells were then dispensed into each well in 384-well plates, where 200 nL of compound in 100% DMSO was already present. Following 6 hours incubation at 37° C., 5% CO2, the luciferase activity was determined by adding 15 μL of Steady Lite Plus substrate (Perkin Elmer) to each well and readout performed on a ViewLux ultraHTS microplate imager (Perkin Elmer). Dose response curves were generated from measurements performed in quadruplicates. Lowest effective concentrations (LEC) values, defined as the concentration that induces an effect which is at least two fold above the standard deviation of the assay, were determined for each compound."}, "[1]": {"system": "interferon-stimulated responsive elements (ISRE)", "assay": "Activation of ISRE promoter elements by conditioned media from PBMC (HEK-ISREluc)", "details": "Homo sapiens; PBMC overnight incubation, supernatant on HEK-ISREluc cells 24 hours; lowest effective concentration; read-out: HEK-ISRE luc (LEC)", "method": "The potential of compounds to induce IFN-I was also evaluated by measuring the activation of interferon-stimulated responsive elements (ISRE) by conditioned media from PBMC. The ISRE element of sequence GAAACTGAAACT (SEQ ID NO: 1) is highly responsive to the STAT1-STAT2-1RF9 transcription factor, activated upon binding of IFN-I to their receptor IFNAR (Clontech, PT3372-5W). The plasmid pISRE-Luc from Clontech (ref. 631913) contains 5 copies of this ISRE element, followed by the firefly luciferase ORF. A HEK293 cell line stably transfected with pISRE-Luc (HEK-ISREluc) was established to profile the conditioned PBMC cell culture media.\nBriefly, PBMCs were prepared from buffy coats of at least two donors using a standard Ficoll centrifugation protocol. Isolated PBMCs were resuspended in RPMI medium supplemented with 10% human AB serum and 2×10^5 cells/well were dispensed into 384-well plates containing compounds (70 μL total volume). After overnight incubation, 10 μL of supernatant was transferred to 384-well plates containing 5×10^3 HEK-ISREluc cells/well in 30 μL (plated the day before). Following 24 hours of incubation, activation of the ISRE elements was measured by assaying luciferase activity using 40 μL/well Steady Lite Plus substrate (Perkin Elmer) and measured with ViewLux ultraHTS microplate imager (Perkin Elmer). The stimulating activity of each compound on the HEK-ISREluc cells was reported as LEC value, defined as the compound concentration applied to the PBMCs resulting in a luciferase activity at least two fold above the standard deviation of the assay. The LEC in turn indicates the degree of ISRE activation on transfer of a defined amount of PBMC culture medium. Recombinant interferon α-2a (Roferon-A) was used as a standard control compound."}, "human TLR7": {"target": "T2, human TLR7 (Homo sapiens, UniProt Q9NYK1)", "T2 construct": "expressed in transfected cells; host or cells: HEK293 (transient transfection)", "T2 sequence (Q9NYK1 27-1049)": "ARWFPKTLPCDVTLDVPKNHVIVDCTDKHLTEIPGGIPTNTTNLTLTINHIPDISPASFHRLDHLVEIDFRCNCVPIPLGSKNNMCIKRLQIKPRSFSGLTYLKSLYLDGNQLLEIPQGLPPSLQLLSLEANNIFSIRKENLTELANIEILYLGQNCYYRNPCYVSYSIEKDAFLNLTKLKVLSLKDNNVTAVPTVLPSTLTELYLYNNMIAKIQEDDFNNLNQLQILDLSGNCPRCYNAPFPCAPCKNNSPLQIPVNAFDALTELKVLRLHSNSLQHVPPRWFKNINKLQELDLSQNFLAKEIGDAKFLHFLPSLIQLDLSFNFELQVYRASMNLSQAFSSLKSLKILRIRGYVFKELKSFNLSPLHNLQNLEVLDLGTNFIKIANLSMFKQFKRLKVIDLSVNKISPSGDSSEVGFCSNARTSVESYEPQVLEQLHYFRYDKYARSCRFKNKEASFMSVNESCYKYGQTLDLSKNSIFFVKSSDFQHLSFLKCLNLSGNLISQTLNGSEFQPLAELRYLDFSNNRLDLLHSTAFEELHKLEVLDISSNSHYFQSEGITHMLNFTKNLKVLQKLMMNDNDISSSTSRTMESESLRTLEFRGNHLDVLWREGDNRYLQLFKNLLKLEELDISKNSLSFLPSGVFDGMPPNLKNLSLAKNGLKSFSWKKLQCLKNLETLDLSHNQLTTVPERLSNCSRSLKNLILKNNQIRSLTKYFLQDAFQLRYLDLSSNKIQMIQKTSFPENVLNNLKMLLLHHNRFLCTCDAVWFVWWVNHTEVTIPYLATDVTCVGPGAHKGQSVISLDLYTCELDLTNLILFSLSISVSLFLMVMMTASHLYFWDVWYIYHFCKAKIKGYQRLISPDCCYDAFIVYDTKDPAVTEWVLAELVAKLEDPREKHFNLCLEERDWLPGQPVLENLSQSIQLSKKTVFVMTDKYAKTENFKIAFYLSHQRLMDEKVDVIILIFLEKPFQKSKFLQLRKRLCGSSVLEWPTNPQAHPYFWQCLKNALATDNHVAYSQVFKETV", "assay": "TLR7 cellular reporter assay (HEK293, NFκB-luc)", "details": "HEK293 transiently transfected with TLR7 and NFκB-luc; 6 hours incubation; lowest effective concentration", "method": "as §1, §2"}}, "data": [{"smiles": "CCCCNc1nc(N)ncc1Cn1ccccc1=O", "note": "[Compound 1]", "values": [{"measurement": "Human TLR 8 (LEC)", "setting": "human TLR8", "value": 7.3, "unit": "µM"}, {"measurement": "minimal effective concentration", "setting": "[1]", "value": 0.7, "unit": "µM"}, {"measurement": "Human TLR 7 (LEC)", "setting": "human TLR7", "value": 1.8, "unit": "µM"}]}, {"smiles": "CCCCNc1nc(N)ncc1Cn1c(C)cccc1=O", "note": "[Compound 2]", "values": [{"measurement": "Human TLR 8 (LEC)", "setting": "human TLR8", "value": 2.1, "unit": "µM"}, {"measurement": "minimal effective concentration", "setting": "[1]", "value": 0.8, "unit": "µM"}, {"measurement": "Human TLR 7 (LEC)", "setting": "human TLR7", "value": 1.1, "unit": "µM"}]}, {"smiles": "CCCCNc1nc(N)ncc1Cn1cc(C)ccc1=O", "note": "[Compound 3]", "values": [{"measurement": "Human TLR 8 (LEC)", "setting": "human TLR8", "value": 10.3, "unit": "µM"}, {"measurement": "minimal effective concentration", "setting": "[1]", "value": 0.3, "unit": "µM"}, {"measurement": "Human TLR 7 (LEC)", "setting": "human TLR7", "value": 0.8, "unit": "µM"}]}, {"smiles": "CCCCNc1nc(N)ncc1Cn1ccc(C)cc1=O", "note": "[Compound 4]", "values": [{"measurement": "Human TLR 8 (LEC)", "setting": "human TLR8", "value": 2.2, "unit": "µM"}, {"measurement": "minimal effective concentration", "setting": "[1]", "value": 0.5, "unit": "µM"}, {"measurement": "Human TLR 7 (LEC)", "setting": "human TLR7", "value": 0.5, "unit": "µM"}]}, {"smiles": "CCCCNc1nc(N)ncc1Cn1c(=O)ccc2ccccc21", "note": "[Compound 5]", "values": [{"measurement": "Human TLR 8 (LEC)", "setting": "human TLR8", "value": 2.7, "unit": "µM"}, {"measurement": "minimal effective concentration", "setting": "[1]", "value": 0.04, "unit": "µM"}, {"measurement": "Human TLR 7 (LEC)", "setting": "human TLR7", "value": 0.9, "unit": "µM"}]}, {"smiles": "CCCCNc1nc(N)ncc1Cn1cccc(F)c1=O", "note": "[Compound 6]", "values": [{"measurement": "Human TLR 8 (LEC)", "setting": "human TLR8", "value": 6.9, "unit": "µM"}, {"measurement": "minimal effective concentration", "setting": "[1]", "value": 0.5, "unit": "µM"}, {"measurement": "Human TLR 7 (LEC)", "setting": "human TLR7", "value": 1.2, "unit": "µM"}]}, {"smiles": "CCCCNc1nc(N)ncc1Cn1ccc(C(F)(F)F)cc1=O", "note": "[Compound 7]", "values": [{"measurement": "Human TLR 8 (LEC)", "setting": "human TLR8", "value": 6.8, "unit": "µM"}, {"measurement": "minimal effective concentration", "setting": "[1]", "value": 0.5, "unit": "µM"}, {"measurement": "Human TLR 7 (LEC)", "setting": "human TLR7", "value": 0.5, "unit": "µM"}]}, {"smiles": "CCCCCNc1nc(N)ncc1Cn1ccccc1=O", "note": "[Compound 8]", "values": [{"measurement": "Human TLR 8 (LEC)", "setting": "human TLR8", "value": ">25", "unit": "µM"}, {"measurement": "minimal effective concentration", "setting": "[1]", "value": 0.6, "unit": "µM"}, {"measurement": "Human TLR 7 (LEC)", "setting": "human TLR7", "value": 1.5, "unit": "µM"}]}, {"smiles": "CCCCCCNc1nc(N)ncc1Cn1ccccc1=O", "note": "[Compound 9]", "values": [{"measurement": "Human TLR 8 (LEC)", "setting": "human TLR8", "value": ">25", "unit": "µM"}, {"measurement": "minimal effective concentration", "setting": "[1]", "value": 3, "unit": "µM"}, {"measurement": "Human TLR 7 (LEC)", "setting": "human TLR7", "value": 7.3, "unit": "µM"}]}, {"smiles": "CCCCC(C)Nc1nc(N)ncc1Cn1ccccc1=O", "note": "(stereo not drawn) [Compound 10]", "values": [{"measurement": "Human TLR 8 (LEC)", "setting": "human TLR8", "value": 16, "unit": "µM"}, {"measurement": "minimal effective concentration", "setting": "[1]", "value": 0.3, "unit": "µM"}, {"measurement": "Human TLR 7 (LEC)", "setting": "human TLR7", "value": 1.0, "unit": "µM"}]}, {"smiles": "CCCC(C)Nc1nc(N)ncc1Cn1ccccc1=O", "note": "(stereo not drawn) [Compound 11]", "values": [{"measurement": "Human TLR 8 (LEC)", "setting": "human TLR8", "value": 14.6, "unit": "µM"}, {"measurement": "minimal effective concentration", "setting": "[1]", "value": 0.3, "unit": "µM"}, {"measurement": "Human TLR 7 (LEC)", "setting": "human TLR7", "value": 1.3, "unit": "µM"}]}]}
